The values below come from patent US20220096503A1, “COMBINATION PHARMACEUTICAL COMPOSITIONS AND METHODS THEREOF” (University of Washington, priority 2019, published 2022).

For series [1] the following is noted: Human, IV; cited from earlier work.
For series [2] the following is noted: Non-human Primates, SC; cited from earlier work.
A short description of series [3]: Conventional dosage form LPV/RTV, oral administration, non-human primates (Example 4). Format: in vivo. The settings on record: non-human primates vs humans. The text has this: AUC (area under the curve, or total drug exposure) of the active drug lopinavir was dose normalized across species and route of administration by dividing the total exposure by the dose administered (μg*hr*kg/(mL*mg)). Dashes represent unreported data. Apparent half-life is reported in hours.

Structures are written as SMILES. Like-named read-outs stand apart in the source and are kept apart here.

For `C[C@H](Cn1cnc2c(N)ncnc21)OCP(=O)(O)O` [TFV, tenofovir], in series [1], the “AUC (dose normalized)” value is 5.6 µg·kg·h/mL/mg and the “T1/2, app” value is 6.6 h. Besides, in series [2], the “AUC (dose normalized)” value was 2.1 µg·kg·h/mL/mg and the “T1/2, app” value was 8 h.
On to `Cc1cccc(C)c1OCC(=O)N[C@@H](Cc1ccccc1)[C@@H](O)C[C@H](Cc1ccccc1)NC(=O)[C@H](C(C)C)N1CCCNC1=O` [lopinavir], for which, in series [3], the “total AUC of lopinavir (PO) in non-human primates, fold lower than humans” value came to 10 fold.
